Results published in patent US7803364B2, “Multipotent neural stem cells” (The Cleveland Clinic Foundation, priority 2005, dated 2010).

What was measured:
[1] = system: βT4 secondary neurospheres; assay: Secondary βT4 neurosphere differentiation into TuJ1-positive neurons and O4-positive oligodendrocytes; assay type: cell-based, rat; conditions: PDGF-A alone or in combination with SHH
From the text: With this assay, we will determine whether growth factors or secreted products from activated immune cells affect βT4 neurosphere behavior. Using standard neurosphere medium and N2 only medium as positive and negative controls for cell growth, we tested the effects of two concentrations of sonic hedgehog on oligodendrocyte and neuron production.
If βT4 cells represent a CNS stem cell, growth factors should induce βT4 cell division and regulate the production of mature CNS cells. […]
Undissociated secondary neurospheres were plated onto PLL-coated coverslips and analyzed at either 24 hours or 7 days in vitro with DMEM/F12, Glutamax and Penicillin-Streptomycin (1%, Cellgro) with different supplements as follows: N2 (1%); N2 (1%) plus sonic hedgehog (SHH, 1000 ng/ml, R&D, Minneapolis, Minn.); “neurosphere medium” (N2 (1%), EGF (20 ng/ml), FGF2, 20 ng/ml).
βT4 positive cell percentage in control and Ara-C-treated cultures were quantified by counting 10 randomly selected fields using standard fluorescence microscopy and a 20× objective. βT4 positive primary neurosphere and secondary neurosphere percentage were quantified by counting 10 randomly selected fields using a 10× objective. […]

[2] = system: βT4 cells in neurospheres from P4 rat brain lateral ventricle; assay: Ara-C enrichment of βT4 cells in neurosphere cultures; assay type: cell-based
From the text: We developed in vitro methods to study and enrich for βT4 cells. We harvested the lateral and medial wall of the lateral ventricles from P4 rat brain. As shown schematically in FIG. 12A, the tissue was dissociated into single cells and placed in neurosphere assay medium. Four days later, we attached the neurospheres to coverslips and stained for βT4. […] In an attempt to purify or enrich for βT4 cells, we treated P4 neurospheres (on coverslips) with cytosine-β-D-arabinofuranoside (Ara-C; for 4 days), which kills actively dividing cells. We dissociated the remaining cells and placed them in neurosphere-forming conditions for 4 days, plated the resulting neurospheres on coverslips and stained them for βIV tubulin.
The “dissociated” cultures had growth properties similar to the plated primary neurospheres.
Primary neurospheres, generated as described above, were dissociated with trypsin and trituration and then plated onto poly-L-lysine-coated (P-1274, Sigma) coverslips (10^5 cells/12 mm coverslip). The coverslips were incubated in neurosphere medium with cytoarabinoside-C (Ara-C, 10 μM, Sigma) for 4 days. Cells were detached from the coverslips by incubation on ice. […] The neurospheres resulting from these procedures are defined as secondary neurospheres and were analyzed by immunocytochemistry as described above or induced to differentiate.

Row | Substance | effect on differentiation of secondary neurospheres [1] | enrichment in βT4 cells ([2]; Ara-C 4 days versus culture without Ara-C (0.03%)) | percent of cells in secondary neurospheres βT4-positive ([2]; secondary neurospheres made from Ara-C-resistant primary neurospheres)
1 | PDGF-A: platelet-derived growth factor added alone or with SHH | had not effect on differentiation |  | 
2 | cytosine-β-D-arabinofuranoside [Ara-C] |  | 2700 fold | > 83%
